Organism: Rattus norvegicus
Test: Open TG-GATES - Regimen: Daily Repeat
Assay type: toxicity, organism-based, Sprague-Dawley
Set-up: regimen Daily Repeat, gender Male, age 6 weeks
Conditions: in vivo, po, route gavage; for APTT / Bas / Eos / Fbg / Hb / Lym / MCH / MCHC / MCV / Mono / Neu / PT / Plat / RBC / Ret / WBC: tissue Blood; for KIDNEY_L / KIDNEY_R / KIDNEY_TOTAL: tissue Kidney; for LIVER: tissue Liver; for ALP / ALT / AST / BUN / CRE / Ca / Cl / DBIL / GLC / IP / K / LDH / Na / PL / RALB / TBIL / TC / TG / TP / gamma-GTP: tissue Plasma
[1] = 0 mg/kg, 72 h, dose level Control, time 3 day
[2] = 0 mg/kg, […], dose level Control, time 7 day
[3] = 0 mg/kg, […], dose level Control, time 14 day
[4] = 0 mg/kg, […], dose level Control, time 28 day
[5] = 2 mg/kg, 72 h, dose level Low, time 3 day
[6] = 2 mg/kg, […], dose level Low, time 7 day
[7] = 2 mg/kg, […], dose level Low, time 14 day
[8] = 2 mg/kg, […], dose level Low, time 28 day

## OCCN1CCN(CCCN2c3ccccc3Sc3ccc(C(F)(F)F)cc32)CC1 [FLUPHENAZINE]
[1]
  TERMINAL_BW: 233.9 g
  APTT: 16.9 s
  Bas: 0%
  Eos: 1%
  Fbg: 232.5 mg/dL
  Hb: 13.6 g/dL
  Lym: 77%
  MCH: 21.5 pg
  MCHC: 33.3%
  MCV: 64.4 fL
  Mono: 7.2%
  Neu: 15%
  PT: 12 s
  Plat: 126.3 x10_4/uL
  RBC: 632.2 x10_4/ul
  Ret: 6.2%
  WBC: 99.4 x10_2/uL
  KIDNEY_L: 1.1 g
  KIDNEY_R: 1.1 g
  KIDNEY_TOTAL: 2.2 g
  LIVER: 11.9 g
  ALP: 922 IU/L
  ALT: 35.2 IU/L
  AST: 60.2 IU/L
  BUN: 17.2 mg/dL
  CRE: 0.6 mg/dL
  Ca: 10.8 mg/dL
  Cl: 104.5 meq/L
  DBIL: 0.035 mg/dL
  GLC: 185 mg/dL
  IP: 8.5 mg/dL
  K: 4.9 meq/L
  LDH: 77.2 IU/L
  Na: 137.8 meq/L
  PL: 163 mg/dL
  RALB: 4 g/dL
  TBIL: 0.3 mg/dL
  TC: 86.2 mg/dL
  TG: 96.8 mg/dL
  TP: 5.8 g/dL
  gamma-GTP: 0.5 IU/L
[2]
  TERMINAL_BW: 262.6 g
  APTT: 16.3 s
  Bas: 0%
  Eos: 1%
  Fbg: 239.4 mg/dL
  Hb: 13.5 g/dL
  Lym: 80.6%
  MCH: 21.6 pg
  MCHC: 33.5%
  MCV: 64.4 fL
  Mono: 4%
  Neu: 15.2%
  PT: 11.9 s
  Plat: 114.7 x10_4/uL
  RBC: 627.6 x10_4/ul
  Ret: 5.2%
  WBC: 114 x10_2/uL
  KIDNEY_L: 1.2 g
  KIDNEY_R: 1.2 g
  KIDNEY_TOTAL: 2.3 g
  LIVER: 13.1 g
  ALP: 774.2 IU/L
  ALT: 30.4 IU/L
  AST: 61.6 IU/L
  BUN: 18.4 mg/dL
  CRE: 0.5 mg/dL
  Ca: 10.5 mg/dL
  Cl: 106.2 meq/L
  DBIL: 0.016 mg/dL
  GLC: 196.2 mg/dL
  IP: 8.4 mg/dL
  K: 4.6 meq/L
  LDH: 82.6 IU/L
  Na: 138.8 meq/L
  PL: 156 mg/dL
  RALB: 3.9 g/dL
  TBIL: 0.3 mg/dL
  TC: 79.4 mg/dL
  TG: 101 mg/dL
  TP: 5.9 g/dL
  gamma-GTP: 1.6 IU/L
[3]
  TERMINAL_BW: 300.9 g
  APTT: 17.2 s
  Bas: 0%
  Eos: 0.6%
  Fbg: 235.6 mg/dL
  Hb: 14.2 g/dL
  Lym: 82.8%
  MCH: 20.3 pg
  MCHC: 33.3%
  MCV: 61.1 fL
  Mono: 5.4%
  Neu: 11%
  PT: 11.7 s
  Plat: 107.2 x10_4/uL
  RBC: 699.2 x10_4/ul
  Ret: 3.7%
  WBC: 145.4 x10_2/uL
  KIDNEY_L: 1.2 g
  KIDNEY_R: 1.2 g
  KIDNEY_TOTAL: 2.4 g
  LIVER: 13.9 g
  ALP: 734.4 IU/L
  ALT: 30.6 IU/L
  AST: 55.8 IU/L
  BUN: 19.8 mg/dL
  CRE: 0.5 mg/dL
  Ca: 11 mg/dL
  Cl: 102.6 meq/L
  DBIL: 0 mg/dL
  GLC: 186.6 mg/dL
  IP: 8.5 mg/dL
  K: 4.5 meq/L
  LDH: 97.4 IU/L
  Na: 135.8 meq/L
  PL: 166 mg/dL
  RALB: 4.2 g/dL
  TBIL: 0.3 mg/dL
  TC: 77 mg/dL
  TG: 181.8 mg/dL
  TP: 6.2 g/dL
  gamma-GTP: 1.4 IU/L
[4]
  TERMINAL_BW: 402.6 g
  APTT: 17.2 s
  Bas: 0%
  Eos: 1%
  Fbg: 231 mg/dL
  Hb: 15.2 g/dL
  Lym: 84.8%
  MCH: 19.7 pg
  MCHC: 33.4%
  MCV: 58.8 fL
  Mono: 4.8%
  Neu: 9.8%
  PT: 11.8 s
  Plat: 92.5 x10_4/uL
  RBC: 774 x10_4/ul
  Ret: 2.7%
  WBC: 160.8 x10_2/uL
  KIDNEY_L: 1.5 g
  KIDNEY_R: 1.5 g
  KIDNEY_TOTAL: 2.9 g
  LIVER: 17.1 g
  ALP: 649.8 IU/L
  ALT: 32.2 IU/L
  AST: 57 IU/L
  BUN: 20.6 mg/dL
  CRE: 0.6 mg/dL
  Ca: 10.8 mg/dL
  Cl: 104.8 meq/L
  DBIL: 0.01 mg/dL
  GLC: 197.4 mg/dL
  IP: 7 mg/dL
  K: 4.5 meq/L
  LDH: 80 IU/L
  Na: 140.8 meq/L
  PL: 171.6 mg/dL
  RALB: 4.1 g/dL
  TBIL: 0.3 mg/dL
  TC: 74.6 mg/dL
  TG: 216 mg/dL
  TP: 6.4 g/dL
  gamma-GTP: 1 IU/L
[5]
  TERMINAL_BW: 226 g
  APTT: 16.5 s
  Bas: 0%
  Eos: 1%
  Fbg: 221.4 mg/dL
  Hb: 13.7 g/dL
  Lym: 80%
  MCH: 22.3 pg
  MCHC: 33.6%
  MCV: 66.3 fL
  Mono: 6.8%
  Neu: 12.6%
  PT: 12.2 s
  Plat: 101.3 x10_4/uL
  RBC: 613 x10_4/ul
  Ret: 5.3%
  WBC: 100.9 x10_2/uL
  KIDNEY_L: 1 g
  KIDNEY_R: 1 g
  KIDNEY_TOTAL: 2 g
  LIVER: 11.4 g
  ALP: 869.2 IU/L
  ALT: 36 IU/L
  AST: 69.6 IU/L
  BUN: 20.4 mg/dL
  CRE: 0.5 mg/dL
  Ca: 11 mg/dL
  Cl: 104.6 meq/L
  DBIL: 0.008 mg/dL
  GLC: 194.6 mg/dL
  IP: 8.5 mg/dL
  K: 4.8 meq/L
  LDH: 156.6 IU/L
  Na: 137.6 meq/L
  PL: 172.8 mg/dL
  RALB: 4.1 g/dL
  TBIL: 0.3 mg/dL
  TC: 85.2 mg/dL
  TG: 95 mg/dL
  TP: 5.9 g/dL
  gamma-GTP: 0.6 IU/L
[6]
  TERMINAL_BW: 257.2 g
  APTT: 16.8 s
  Bas: 0%
  Eos: 0.8%
  Fbg: 219.6 mg/dL
  Hb: 13.7 g/dL
  Lym: 83%
  MCH: 21 pg
  MCHC: 33.6%
  MCV: 62.5 fL
  Mono: 3%
  Neu: 13.2%
  PT: 12.1 s
  Plat: 103.7 x10_4/uL
  RBC: 652.6 x10_4/ul
  Ret: 4.5%
  WBC: 106.2 x10_2/uL
  KIDNEY_L: 1.1 g
  KIDNEY_R: 1.1 g
  KIDNEY_TOTAL: 2.2 g
  LIVER: 12.4 g
  ALP: 761.6 IU/L
  ALT: 30.4 IU/L
  AST: 60.4 IU/L
  BUN: 18.8 mg/dL
  CRE: 0.5 mg/dL
  Ca: 10.4 mg/dL
  Cl: 105.2 meq/L
  DBIL: 0.004 mg/dL
  GLC: 187.6 mg/dL
  IP: 7.9 mg/dL
  K: 4.7 meq/L
  LDH: 83.6 IU/L
  Na: 137.6 meq/L
  PL: 157.6 mg/dL
  RALB: 4 g/dL
  TBIL: 0.3 mg/dL
  TC: 74 mg/dL
  TG: 146.6 mg/dL
  TP: 5.9 g/dL
  gamma-GTP: 1.4 IU/L
[7]
  TERMINAL_BW: 299.4 g
  APTT: 16.8 s
  Bas: 0%
  Eos: 0.4%
  Fbg: 223.2 mg/dL
  Hb: 14.3 g/dL
  Lym: 83.2%
  MCH: 20.6 pg
  MCHC: 33.5%
  MCV: 61.4 fL
  Mono: 5.4%
  Neu: 11%
  PT: 11.9 s
  Plat: 108 x10_4/uL
  RBC: 696 x10_4/ul
  Ret: 3%
  WBC: 149.6 x10_2/uL
  KIDNEY_L: 1.2 g
  KIDNEY_R: 1.1 g
  KIDNEY_TOTAL: 2.3 g
  LIVER: 13.5 g
  ALP: 728.4 IU/L
  ALT: 28 IU/L
  AST: 56.6 IU/L
  BUN: 19.6 mg/dL
  CRE: 0.6 mg/dL
  Ca: 10.8 mg/dL
  Cl: 103.4 meq/L
  DBIL: 0 mg/dL
  GLC: 179.4 mg/dL
  IP: 7.7 mg/dL
  K: 4.4 meq/L
  LDH: 92.4 IU/L
  Na: 135.2 meq/L
  PL: 147.8 mg/dL
  RALB: 4.1 g/dL
  TBIL: 0.2 mg/dL
  TC: 66.8 mg/dL
  TG: 160.2 mg/dL
  TP: 6 g/dL
  gamma-GTP: 1 IU/L
[8]
  TERMINAL_BW: 362.5 g
  APTT: 17.2 s
  Bas: 0%
  Eos: 1%
  Fbg: 211.6 mg/dL
  Hb: 14.9 g/dL
  Lym: 84%
  MCH: 19.3 pg
  MCHC: 33.4%
  MCV: 57.7 fL
  Mono: 3.6%
  Neu: 11.8%
  PT: 12.1 s
  Plat: 95.6 x10_4/uL
  RBC: 775.2 x10_4/ul
  Ret: 2.4%
  WBC: 160.4 x10_2/uL
  KIDNEY_L: 1.3 g
  KIDNEY_R: 1.3 g
  KIDNEY_TOTAL: 2.6 g
  LIVER: 15.3 g
  ALP: 528.8 IU/L
  ALT: 29.6 IU/L
  AST: 59.6 IU/L
  BUN: 19.8 mg/dL
  CRE: 0.6 mg/dL
  Ca: 10.5 mg/dL
  Cl: 106.8 meq/L
  DBIL: 0.002 mg/dL
  GLC: 179.2 mg/dL
  IP: 6.6 mg/dL
  K: 4.4 meq/L
  LDH: 79.6 IU/L
  Na: 139.8 meq/L
  PL: 151.4 mg/dL
  RALB: 4.1 g/dL
  TBIL: 0.2 mg/dL
  TC: 73.2 mg/dL
  TG: 131 mg/dL
  TP: 6.3 g/dL
  gamma-GTP: 2 IU/L
